Molecules are shown by their SMILES. Positions count from the first letter of the chain named. A value given as a limit tells only on which side of the number the result lay.

What all share (type): cell-based
The target of assay [1] is T1, AR protein (Homo sapiens, UniProt P10275).
T1 construct: host or cells: VCaP
T1 sequence (P10275 1-920): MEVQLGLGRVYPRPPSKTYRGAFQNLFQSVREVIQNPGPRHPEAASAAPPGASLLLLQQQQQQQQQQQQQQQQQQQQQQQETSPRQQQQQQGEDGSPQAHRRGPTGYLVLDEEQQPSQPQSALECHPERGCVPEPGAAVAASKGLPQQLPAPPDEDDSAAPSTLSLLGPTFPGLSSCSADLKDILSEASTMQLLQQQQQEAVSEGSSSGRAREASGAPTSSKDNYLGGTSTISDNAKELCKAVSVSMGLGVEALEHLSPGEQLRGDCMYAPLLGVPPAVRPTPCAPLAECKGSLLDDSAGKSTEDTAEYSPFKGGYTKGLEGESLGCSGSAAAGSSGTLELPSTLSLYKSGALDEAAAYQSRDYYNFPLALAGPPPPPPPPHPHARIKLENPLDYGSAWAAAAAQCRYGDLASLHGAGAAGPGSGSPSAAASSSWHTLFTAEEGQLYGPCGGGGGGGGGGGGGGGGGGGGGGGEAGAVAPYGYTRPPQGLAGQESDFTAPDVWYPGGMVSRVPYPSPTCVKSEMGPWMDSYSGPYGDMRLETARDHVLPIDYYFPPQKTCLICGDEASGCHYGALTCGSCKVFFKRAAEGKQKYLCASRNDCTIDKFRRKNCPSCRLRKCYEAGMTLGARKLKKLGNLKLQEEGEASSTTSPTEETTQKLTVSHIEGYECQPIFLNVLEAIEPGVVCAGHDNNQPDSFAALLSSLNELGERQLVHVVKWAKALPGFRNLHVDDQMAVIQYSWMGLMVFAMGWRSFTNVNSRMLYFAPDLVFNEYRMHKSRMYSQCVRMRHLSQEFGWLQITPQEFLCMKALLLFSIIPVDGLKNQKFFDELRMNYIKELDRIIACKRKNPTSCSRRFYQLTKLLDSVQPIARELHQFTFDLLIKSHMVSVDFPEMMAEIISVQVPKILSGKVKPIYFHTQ
The experiment in a line: AR protein degradation in VCaP cells (Western blot). Particulars: 8h. How it is done: The degradation activity of the compounds disclosed in the present invention on AR protein in VCaP cells (cell source: ATCC)
The AR-positive human prostate cancer cells VCaP cultured in DMEM (GiBco catalog number 11995-065) containing 10% FBS (Hyclone catalog number SH30406.05) was inoculated in a six-well microplate (Thermo catalog number 140675) at a concentration of 3×10^5 cells/ well. After being cultured overnight in a carbon dioxide incubator (ESCO), the prepared compound of the present invention and the positive control sample ARV-766 (Annaiji) solution of different concentrations were added at a volume of 1 µL/well to make the final concentrations of the compound and the positive control sample reach 5nM and 0.5nM, respectively. At the same time, the corresponding solvent control was set and cultured for 8h. After 8h of culture, the culture medium was removed, and the cells were washed with PBS. RIPA lysis buffer containing 1% Protease Inhibitor Cocktail was added. After lysis and centrifugation, a total protein extract was obtained, and the protein concentration in the extract was detected by BCA method. Protein electrophoresis was performed using SDS-PAGE, and then the protein was transferred to a PVDF (Millipore Sigma catalog number PSRP010R5) membrane at a constant voltage of 100V for 60min. The PVDF membrane was placed in a 5% milk powder 1×TBST solution and blocked at room temperature for 1h. The primary antibody solution (Anti-Androgen receptor, Cell Signaling Technology catalog number: 5153S; 1:2000 dilution) was prepared and was incubated at 4°C overnight. The primary antibody solution was discarded and the PVDF membrane was washed with 1×TBST for 5 minutes each time, for three times. The secondary antibody solution (Thermo catalog number SA5-35571; 1:7500 dilution) was prepared and was incubated at room temperature for 1 hour. The secondary antibody solution was discarded and the PVDF membrane was washed with 1×TBST for 5 minutes each time, for three times. A dual-color infrared laser imaging system (Licor catalog number Odyssey CLX) was used for Western membrane imaging. Image Studio software was used to analyze the grayscale of the bands. GAPDH protein bands were also detected for each sample as the reference. The AR protein degradation rate of the compound and the positive control sample was calculated based on the grayscale of the protein bands.
Table 7 Degradation rate of AR protein in VCaP cells by the compounds disclosed in the present invention
In general terms: A western blot detects proteins with antibodies after separation by electrophoresis.

Assay [2] deals with LNCaP cells. The assay can be described thus: Inhibition of LNCaP cell proliferation (WST-8). Particulars: Homo sapiens, LNCaP FGC cells, 96 hours. The procedure: The inhibitory activity of compounds disclosed in the present invention on LNCaP cell proliferation
The cells were cultured overnight in a 37°C, 5% CO2 cell incubator. […] The final concentration of the compound was 9 concentration points of 5-fold serial dilution starting from 10 µM. […] The cells were cultured in a cell culture incubator at 37°C and 5% CO2 for 96 hours. On the sixth day, the 96-well cell culture plate was removed, and 1/10 volume of WST-8 (Beytime, C0040) reagent was added to each well. The absorbance at 450 nm was detected using a microplate reader (TECAN, F50).
(In general: Tetrazolium assays rely on reduction of a dye to a coloured formazan, in cell work by metabolically active cells.)

For assay [3], the system named is VCaP cells. The assay can be described thus: Inhibition of VCaP cell proliferation (WST-8). To be noted: Homo sapiens, 168 hours. The procedure: On the first day of the experiment, VCaP cells were seeded at a density of 15,000 cells/well in a 96-well plate using DMEM medium containing 10% fetal bovine serum, with 100µL of cell suspension per well, and cultured overnight in a cell incubator at 37°C and 5% CO2. On the second day, 100µL of the compound of the present invention and the positive control ARV-110 (source: Anaiji) prepared in culture medium at different concentrations were added to each well. The final concentration of the compound was 9 concentration points of 5-fold serial dilution starting from 10 µM. […] On the ninth day, the 96-well cell culture plate was removed and 1/10 volume of WST-8 (Beytime, C0040) reagent was added to each well. The absorbance at 450nm was measured using a microplate reader (TECAN, F50).

Assay [4] deals with T2, AR protein (Homo sapiens, UniProt P10275, T878A).
T2 construct: host or cells: LNCaP FGC
T2 sequence (P10275 1-920 T878A): T1 sequence (P10275 1-920) with T878A
The assay can be described thus: AR protein degradation in LNCaP cells (Western blot). To be noted: 8 hours. A digest of the protocol:
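LNCaP cells exposed to compound or solvent control for 8 h, lysed in RIPA, protein normalized by BCA. AR detected by SDS-PAGE/Western blot with infrared imaging; band grayscale normalized to GAPDH to calculate AR degradation rate.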

Regarding `COc1cc(O[C@H]2C(C)(C)[C@H](NC(=O)c3ccc(N4CCC(CN5CCN6c7ccc(C(=O)N[C@H]8CCC(=O)NC8=O)cc7OC[C@H]6C5)CC4)cc3)C2(C)C)ccc1C#N` [A-P-74, (R)-3-((1-(4-(((1R,3R)-3-(4-cyano-3-methoxyphenoxy)-2,2,4,4-tetramethylcyclobutyl)carbamoyl)phenyl)piperidin-4-yl)methyl)-N-((S)-2,6-dioxopiperidin-3-yl)-1,2,3,4,4a,5-hexahydrobenzo[b]pyrazi no[1,2-d][1,4]oxazine-8-carboxamide], the “Degradation rate of AR protein in VCaP cells” value came to 2% in assay [1] (0.5 nM) and 70% in assay [1] (5 nM). In addition, the results for the IC50 in assay [2] and in assay [3] were 0.5 µM and 2.16 µM, respectively.
In the case of `COc1cc(O[C@H]2C(C)(C)[C@H](NC(=O)c3ccc(N4CCC(CN5CCC6(CC5)COc5c6ccc(C(=O)N[C@H]6CCC(=O)NC6=O)c5OC)CC4)cc3)C2(C)C)ccc1C#N` [A-P-78, 1'-((1-(4-(((1r,3r)-3-(4-cyano-3-methoxyphenoxy)-2,2,4,4-tetramethylcyclobutyl)carbamoyl)phenyl)piperidin-4-yl)methyl)-N-((S)-2,6-dioxopiperidin-3-yl)-7-methoxy-2H-spiro[benzofuran-3,4'-piperidine]-6-carboxamide], the “Degradation of AR protein in LNCaP cells, 10 nM (%)” value in assay [4] (10 nM) was -2%. For the same compound, in assay [4] (100 nM), the “Degradation of AR protein in LNCaP cells, 100 nM (%)” value is reported as 14%. The IC50 (as a rule, the midpoint of a concentration-inhibition curve) in assay [2] is 50.7 µM; in assay [3], over 10 µM.
With `COc1cc2c(cc1C(=O)N[C@H]1CCC(=O)NC1=O)OCC21CCN(CC2CCN(c3ccc(N4CCC5(CC4)C[C@H](C)N(c4ccc(C#N)c(Cl)c4)C5)cc3)CC2)CC1` [A-P-80, 1'-((1-(4-((S)-2-(3-chloro-4-cyanophenyl)-3-methyl-2,8-diazaspiro[4.5]decan-8-yl)phenyl)piperidin-4-yl)methyl)-N-((S)-2,6-dioxopiperidin-3-yl)-5-methoxy-2H-spiro[benzofuran-3,4'-piperidin]-6-carboxamide], the percent AR protein degradation at a fixed concentration at 0.01 µM in assay [4] (10 nM) was determined as 22%. Moreover, the percent AR protein degradation at a fixed concentration at 0.1 µM in assay [4] (100 nM) stood at 73%. Also, the IC50 in assay [2] amounted to 1.94 µM; in assay [3], 0.051 µM.
On the same counts, the results for `COc1cc2c(cc1C(=O)N[C@H]1CCC(=O)NC1=O)C1(CCN(CC3CCN(c4ccc(N5CCC6(CC5)C[C@H](C)N(c5ccc(C#N)c(Cl)c5)C6)cc4)CC3)CC1)CO2` [A-P-81, 1'-((1-(4-((S)-2-(3-chloro-4-cyanophenyl)-3-methyl-2,8-diazaspiro[4.5]decan-8-yl)phenyl)piperidin-4-yl)methyl)-N-((S)-2,6-dioxopiperidin-3-yl)-6-methoxy-2H-spiro[benzofuran-3,4'-piperidin]-5-carboxamide] are -15%, 30%, 14.5 µM and 1.79 µM.
On the same counts, the results for `COc1cc2c(cc1C(=O)N[C@H]1CCC(=O)NC1=O)C1(CCN(CC3CCN(C(=O)c4ccc(N5CCC6(CC5)C[C@H](C)N(c5ccc(C#N)c(Cl)c5)C6)cc4)CC3)CC1)CO2` [A-P-82, 1'-((1-(4-((S)-2-(3-chloro-4-cyanophenyl)-3-methyl-2,8-diazaspiro[4.5]decan-8-yl)benzoyl)piperidin-4-yl)methyl)-N-((S)-2,6-dioxohesperidin-3-yl)-6-methoxy-2H-spiro[benzofuran-3,4'-piperidin]-5-carboxamide] are 55%, 83%, 15.7 µM and 0.049 µM.

The record behind these values is patent EP4722219A1 (Gan & Lee Pharmaceuticals Co., Ltd., priority 2023, dated 2024).
